We go through 3 compounds from patent US11208412B2 (DAEGU-GYEONGBUK MEDICAL INNOVATION FOUNDATION, priority 2017, dated 2021).

Holding throughout (experiment): Kinase selectivity, DiscoverX scanMAX Kinase assay panel (% control)
Holding throughout (type): binding

For assay [1], the target named is T1, kinases of the scanMAX Kinase assay panel (Homo sapiens, UniProt P00519, E255K).
T1 construct: purchased DiscoverX Co. (contract measurement) scanMAX Kinase assay panel
The settings on record: ABL1(E255K)-phosphorylated; 1 uM. Summed up:
(§1)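 Compounds were tested at 1 uM (in DMSO) against each panel kinase. % control was calculated as (compound − positive control)/(negative control − positive control)×100, where the positive control gives 0% and DMSO gives 100%. Activity toward a kinase was called at % control <35%.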

Assay [2] has as its target T2, kinases of the scanMAX Kinase assay panel (Homo sapiens, UniProt Q15418).
T2 construct: purchased DiscoverX Co. (contract measurement) scanMAX Kinase assay panel
The settings on record: 1 uM in DMSO. Summed up:
as §1

The target in assay [3] is T3, kinases of the scanMAX Kinase assay panel (Homo sapiens, UniProt O95747).
T3 construct: purchased DiscoverX Co. (contract measurement) scanMAX Kinase assay panel
T3 sequence (O95747 whole entry): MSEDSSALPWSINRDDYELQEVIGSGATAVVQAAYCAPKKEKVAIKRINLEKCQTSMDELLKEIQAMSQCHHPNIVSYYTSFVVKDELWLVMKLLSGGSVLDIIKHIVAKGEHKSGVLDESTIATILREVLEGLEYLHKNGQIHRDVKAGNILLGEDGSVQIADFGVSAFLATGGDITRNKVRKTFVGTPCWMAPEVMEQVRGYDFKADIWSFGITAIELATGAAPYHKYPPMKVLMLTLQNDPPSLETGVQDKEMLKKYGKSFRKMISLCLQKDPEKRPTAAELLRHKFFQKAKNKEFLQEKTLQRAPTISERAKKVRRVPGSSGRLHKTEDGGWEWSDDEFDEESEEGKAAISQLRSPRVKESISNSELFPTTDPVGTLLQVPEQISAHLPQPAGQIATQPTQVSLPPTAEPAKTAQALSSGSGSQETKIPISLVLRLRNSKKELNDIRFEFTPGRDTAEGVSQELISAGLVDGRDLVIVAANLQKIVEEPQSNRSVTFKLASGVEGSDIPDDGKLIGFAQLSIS
The settings on record: OSR1; 1 uM. In a few lines: as §1

Assay [4] concerns the target T4, kinases of the scanMAX Kinase assay panel (Homo sapiens, UniProt P53778).
T4 construct: purchased DiscoverX Co. (contract measurement) scanMAX Kinase assay panel
T4 sequence (P53778 1-367): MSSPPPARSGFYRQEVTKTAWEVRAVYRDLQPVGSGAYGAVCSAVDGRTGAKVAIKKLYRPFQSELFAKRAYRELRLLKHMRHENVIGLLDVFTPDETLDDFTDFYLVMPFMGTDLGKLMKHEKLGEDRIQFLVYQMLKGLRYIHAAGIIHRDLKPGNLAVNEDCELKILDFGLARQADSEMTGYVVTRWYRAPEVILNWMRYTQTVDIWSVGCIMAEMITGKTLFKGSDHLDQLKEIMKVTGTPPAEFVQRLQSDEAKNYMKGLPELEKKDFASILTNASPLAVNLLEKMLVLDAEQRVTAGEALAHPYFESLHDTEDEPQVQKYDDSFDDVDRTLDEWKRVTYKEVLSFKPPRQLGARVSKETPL
The settings on record: p38-gamma; 1 uM. Summed up: as §1

Assay [5] has as its target T5, kinases of the scanMAX Kinase assay panel (Homo sapiens, UniProt P36888, D835Y).
T5 construct: purchased DiscoverX Co. (contract measurement) scanMAX Kinase assay panel
T5 sequence (P36888 27-993 D835Y): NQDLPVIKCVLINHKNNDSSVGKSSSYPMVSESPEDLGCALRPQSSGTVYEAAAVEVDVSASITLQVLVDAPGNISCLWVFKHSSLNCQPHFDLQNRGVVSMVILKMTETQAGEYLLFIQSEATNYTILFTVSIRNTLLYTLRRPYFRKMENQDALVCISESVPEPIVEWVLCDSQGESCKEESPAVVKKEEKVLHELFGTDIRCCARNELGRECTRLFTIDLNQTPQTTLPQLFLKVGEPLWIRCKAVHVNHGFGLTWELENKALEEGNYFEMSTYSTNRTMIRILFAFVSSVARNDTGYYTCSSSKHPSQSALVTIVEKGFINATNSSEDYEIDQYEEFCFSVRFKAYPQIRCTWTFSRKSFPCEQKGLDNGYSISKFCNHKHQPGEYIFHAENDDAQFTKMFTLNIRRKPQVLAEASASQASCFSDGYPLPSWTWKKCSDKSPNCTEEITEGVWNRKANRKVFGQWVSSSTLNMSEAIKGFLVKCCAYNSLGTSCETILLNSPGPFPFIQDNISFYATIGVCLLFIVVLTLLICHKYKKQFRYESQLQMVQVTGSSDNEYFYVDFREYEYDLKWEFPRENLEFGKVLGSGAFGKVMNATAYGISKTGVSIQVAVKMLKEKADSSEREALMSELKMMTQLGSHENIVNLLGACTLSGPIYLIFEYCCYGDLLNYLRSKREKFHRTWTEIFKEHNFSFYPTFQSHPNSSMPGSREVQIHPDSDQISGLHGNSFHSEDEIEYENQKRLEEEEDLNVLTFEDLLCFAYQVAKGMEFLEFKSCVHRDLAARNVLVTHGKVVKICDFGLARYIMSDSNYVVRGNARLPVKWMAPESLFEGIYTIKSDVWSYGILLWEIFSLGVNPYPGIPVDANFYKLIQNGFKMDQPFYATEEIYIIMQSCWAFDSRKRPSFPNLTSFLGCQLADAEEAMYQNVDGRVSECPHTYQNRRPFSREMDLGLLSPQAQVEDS
The settings on record: FLT3(D835Y); 1 uM. In a few lines: as §1

Assay [6] concerns the target T6, kinases of the scanMAX Kinase assay panel (Homo sapiens, UniProt Q86Y07).
T6 construct: purchased DiscoverX Co. (contract measurement) scanMAX Kinase assay panel
The settings on record: kinase VRK2; 1 uM in DMSO. Summed up: as §1

Assay [7] concerns the target T7, kinases of the scanMAX Kinase assay panel (Homo sapiens, UniProt P24941).
T7 construct: purchased DiscoverX Co. (contract measurement) scanMAX Kinase assay panel
The following applies: CDK2; 1 uM. Summed up:
as §1

For assay [8], the target named is T8, kinases of the scanMAX Kinase assay panel (Homo sapiens, UniProt P52564).
T8 construct: purchased DiscoverX Co. (contract measurement) scanMAX Kinase assay panel
T8 sequence (P52564 1-334): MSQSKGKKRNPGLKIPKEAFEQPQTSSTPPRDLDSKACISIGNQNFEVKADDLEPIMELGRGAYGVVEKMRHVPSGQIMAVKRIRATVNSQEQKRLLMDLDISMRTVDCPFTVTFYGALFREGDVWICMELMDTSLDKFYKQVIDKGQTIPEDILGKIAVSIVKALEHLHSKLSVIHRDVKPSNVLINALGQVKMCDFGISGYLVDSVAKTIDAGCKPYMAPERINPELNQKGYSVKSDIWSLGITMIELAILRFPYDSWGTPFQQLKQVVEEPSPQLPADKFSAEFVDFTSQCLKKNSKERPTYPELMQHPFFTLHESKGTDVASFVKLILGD
The following applies: MEK6; 1 uM. In a few lines:
as §1

For assay [9], the target named is T9, kinases of the scanMAX Kinase assay panel (Homo sapiens, UniProt Q8N752).
T9 construct: purchased DiscoverX Co. (contract measurement) scanMAX Kinase assay panel
T9 sequence (Q8N752 1-337): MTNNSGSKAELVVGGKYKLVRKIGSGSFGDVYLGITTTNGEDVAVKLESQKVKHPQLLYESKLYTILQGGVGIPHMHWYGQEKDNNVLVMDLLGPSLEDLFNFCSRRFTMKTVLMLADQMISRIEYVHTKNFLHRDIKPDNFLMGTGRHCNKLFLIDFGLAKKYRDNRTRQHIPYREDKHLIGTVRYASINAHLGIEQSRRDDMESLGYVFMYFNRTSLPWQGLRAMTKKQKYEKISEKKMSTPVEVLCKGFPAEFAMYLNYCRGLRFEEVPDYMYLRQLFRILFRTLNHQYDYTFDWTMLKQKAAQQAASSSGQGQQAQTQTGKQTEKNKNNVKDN
The following applies: CSNK1A1L; 1 uM. Summed up:
as §1

Setting [10] is: kinase RSK1(Kin.Dom.1-N-terminal), read-out: % control, RSK1(Kin.Dom.1-N-terminal).
Setting [11] is: kinase RSK1(Kin.Dom.2-C-terminal), read-out: % control, RSK1(Kin.Dom.2-C-terminal).

Like-named read-outs stand apart in the source and are kept apart here.

T1 sequence (P00519 whole entry E255K): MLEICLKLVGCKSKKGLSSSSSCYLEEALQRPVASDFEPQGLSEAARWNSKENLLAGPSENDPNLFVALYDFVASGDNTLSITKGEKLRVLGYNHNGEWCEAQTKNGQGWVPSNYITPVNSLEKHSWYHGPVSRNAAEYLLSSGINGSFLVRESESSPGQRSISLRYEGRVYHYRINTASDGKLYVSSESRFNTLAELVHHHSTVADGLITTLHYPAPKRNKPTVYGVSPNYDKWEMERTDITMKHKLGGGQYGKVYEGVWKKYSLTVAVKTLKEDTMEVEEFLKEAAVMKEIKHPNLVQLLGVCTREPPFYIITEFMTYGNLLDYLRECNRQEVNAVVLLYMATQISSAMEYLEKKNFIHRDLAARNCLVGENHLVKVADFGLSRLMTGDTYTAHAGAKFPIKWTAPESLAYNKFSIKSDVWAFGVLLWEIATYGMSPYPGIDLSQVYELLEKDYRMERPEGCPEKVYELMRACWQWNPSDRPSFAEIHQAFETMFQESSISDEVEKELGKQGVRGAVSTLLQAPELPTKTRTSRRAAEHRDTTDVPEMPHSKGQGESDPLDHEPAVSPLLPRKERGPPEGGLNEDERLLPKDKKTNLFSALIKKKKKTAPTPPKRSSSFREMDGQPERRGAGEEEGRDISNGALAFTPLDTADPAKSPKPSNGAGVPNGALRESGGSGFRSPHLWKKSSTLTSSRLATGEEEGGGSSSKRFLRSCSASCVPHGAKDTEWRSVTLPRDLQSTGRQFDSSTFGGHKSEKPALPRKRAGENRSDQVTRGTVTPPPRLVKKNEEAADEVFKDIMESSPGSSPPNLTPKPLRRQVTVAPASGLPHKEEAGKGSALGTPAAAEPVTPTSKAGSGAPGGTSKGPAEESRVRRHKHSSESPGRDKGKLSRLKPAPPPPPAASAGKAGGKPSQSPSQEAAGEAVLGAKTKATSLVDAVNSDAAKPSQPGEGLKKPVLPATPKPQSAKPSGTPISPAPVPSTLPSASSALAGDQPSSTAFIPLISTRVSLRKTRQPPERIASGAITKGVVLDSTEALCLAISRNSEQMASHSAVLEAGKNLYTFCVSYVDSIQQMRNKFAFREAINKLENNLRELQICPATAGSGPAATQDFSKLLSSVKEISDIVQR
T2 sequence (Q15418 whole entry): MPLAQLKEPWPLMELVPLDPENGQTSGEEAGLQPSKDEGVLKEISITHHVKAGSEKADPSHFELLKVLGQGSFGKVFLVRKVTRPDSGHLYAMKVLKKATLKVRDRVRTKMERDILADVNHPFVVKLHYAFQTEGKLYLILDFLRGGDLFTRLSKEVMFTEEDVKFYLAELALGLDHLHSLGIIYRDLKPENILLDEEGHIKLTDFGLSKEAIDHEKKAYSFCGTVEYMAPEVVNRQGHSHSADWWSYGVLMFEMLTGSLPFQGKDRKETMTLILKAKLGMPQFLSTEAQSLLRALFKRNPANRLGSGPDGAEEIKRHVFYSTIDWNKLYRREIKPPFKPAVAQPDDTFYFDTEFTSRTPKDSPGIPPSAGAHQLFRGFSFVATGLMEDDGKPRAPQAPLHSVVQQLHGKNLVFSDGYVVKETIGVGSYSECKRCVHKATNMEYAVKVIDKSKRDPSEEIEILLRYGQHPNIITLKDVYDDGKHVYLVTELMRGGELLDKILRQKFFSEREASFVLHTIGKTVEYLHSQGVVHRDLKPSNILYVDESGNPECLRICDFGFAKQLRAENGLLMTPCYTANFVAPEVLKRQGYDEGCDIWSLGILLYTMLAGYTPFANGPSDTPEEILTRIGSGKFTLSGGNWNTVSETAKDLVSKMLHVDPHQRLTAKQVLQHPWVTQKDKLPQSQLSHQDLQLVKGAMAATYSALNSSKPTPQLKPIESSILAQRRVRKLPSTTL
T6 sequence (Q86Y07 whole entry): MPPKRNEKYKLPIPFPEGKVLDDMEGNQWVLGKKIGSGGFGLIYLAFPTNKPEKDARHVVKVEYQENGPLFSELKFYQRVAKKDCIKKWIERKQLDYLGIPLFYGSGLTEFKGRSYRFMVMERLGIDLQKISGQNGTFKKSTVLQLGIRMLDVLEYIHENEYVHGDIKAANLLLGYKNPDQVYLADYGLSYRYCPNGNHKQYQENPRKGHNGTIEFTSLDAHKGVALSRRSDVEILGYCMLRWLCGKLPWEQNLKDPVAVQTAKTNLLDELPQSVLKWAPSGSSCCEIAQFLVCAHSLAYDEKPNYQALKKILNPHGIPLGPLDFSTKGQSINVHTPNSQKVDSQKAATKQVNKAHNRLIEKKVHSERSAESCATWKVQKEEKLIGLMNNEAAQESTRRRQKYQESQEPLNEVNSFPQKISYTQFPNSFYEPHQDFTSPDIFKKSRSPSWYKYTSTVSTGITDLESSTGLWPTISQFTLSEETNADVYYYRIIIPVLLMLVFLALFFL

`CC1(Nc2nc(Nc3cnn([C@H]4CCN(C5COC5)C[C@@H]4F)c3Cl)nc3[nH]cc(C#N)c23)CC1` [Example 52, 2-((5-chloro-1-((3S,4S)-3-fluoro-1-(oxetane-3-yl)piperidine-4-yl)-1H-pyrazole-4-yl)amino)((1-methylcyclopropyl)amino)-7H-pyrrolo[2,3-d]pyrimidine-5-carbonitrile]: the remaining binding at 1 µM in assay [1] was 0.6%; in assay [2] (setting [10]) it was 2.4%; in assay [2] (setting [11]), 52%; in [3], 0.45%; in [4], 77%; in assay [5] it was 0%. The remaining binding at 1 µM is 100% in assay [6], 96% in assay [7], 19% in assay [8] and 0.85% in assay [9].
Regarding `CCNc1nc(Nc2ccc(C(=O)N3CCC(N4CCOCC4)CC3)cc2OC)nc2[nH]cc(C(F)(F)F)c12` [Example 104, (4-((4-(ethylamino)-5-(trifluoromethyl)-7H-pyrrolo[2,3-d]pyrimidine-2-yl)amino)-3-methoxyphenyl)(4-morpholinopiperidine-1-yl)methanone], the remaining binding at 1 µM in assay [1] was determined as 100%; in assay [2] (setting [10]), 89%; in assay [2] (setting [11]) it was 61%; in assay [3], 7.5%; in [4] it was 89%; in [5] it was 14%. Also, the remaining binding at 1 µM was determined as 100% in [6], 98% in [7], 92% in assay [8] and 15% in assay [9].
Regarding `CNc1nc(Nc2ccc(C(=O)N3CCOCC3)cc2OC)nc2[nH]cc(C#N)c12` [Example 1, 2-((2-methoxy-4-(morpholine-4-carbonyl)phenyl)amino)-4-(methylamino)-7H-pyrrolo[2,3-d]pyrimidine-5-carbonitrile], the remaining binding at 1 µM in assay [1] stood at 91%; in assay [2] (setting [10]) it was 98%; in [2] (setting [11]) it was 59%; in [3], 21%; in [4], 70%; in assay [5], 82%. Further, the remaining binding at 1 µM in assay [6] is 71%; in assay [7], 94%; in assay [8], 43%; in assay [9] it was 34%.
